Patent publication US20210059959A1, “USE OF CANNABINOIDS IN THE TREATMENT OF MENTAL DISORDERS” (GW Pharma Limited, priority 2015, published 2021)

System: participants with schizophrenia or related psychotic disorder
Assay: Scale for the Assessment of Negative Symptoms (SANS), double-blind placebo-controlled study of CBD as adjunctive therapy
Format: in vivo, human
Settings: CBD vs placebo
Experimental: Example 1 below describes the use of a highly purified cannabis extract comprising cannabidiol (CBD) in a human clinical trial. Example 1 describes data produced in a double-blind, randomised, placebo-controlled, parallel group study of highly purified CBD as adjunctive therapy in first line treatment of schizophrenia or related psychotic disorder.
An eight-week, multi-centre, double-blind, randomised, placebo-controlled, parallel group study was conducted with the aim to determine the efficacy, safety and tolerability of highly purified CBD as adjunctive therapy in first line treatment of schizophrenia or related psychotic disorder.
This study evaluated the efficacy of highly purified CBD compared with placebo on the participant's PANSS Total score, ‘P’, ‘N’, ‘G’, SANS and BACS scores.
Changes from baseline in PANSS scores (Total, ‘P’, ‘N’ and ‘G’), SANS and BACS were recorded at the start of the study (baseline) and at the end of treatment (after 6 weeks treatment with CBD or placebo).
For inclusion in the study participants were required to be male or female aged 18 to 65 years, diagnosed with schizophrenia or a related psychotic disorder (such as schizoaffective or schizophreniform disorder) as defined by the Diagnostic and Statistical Manual of Mental Disorders Version 4. Participants must have been treated for a minimum of four-weeks and be on a stable dose of their current antipsychotic medication. […] A PANSS score in excess of 60 infers that the patient has symptoms related to schizophrenia or related disorders.
The participants were randomised to one of two treatment groups which each consisted of 39 participants. Treatment was administered as either 5 ml CBD (100 mg/ml) oral solution to be taken twice daily or 5 ml matched placebo oral solution to be taken twice daily.
Scale for the Assessment of Negative Symptoms (SANS)
SANS assesses five symptom complexes to obtain clinical ratings of negative symptoms in participants with schizophrenia or related psychotic disorder. They are: affective blunting; alogia (impoverished thinking); avolition/apathy; anhedonia/asociality; and disturbance of attention.
Assessments are conducted on a six-point scale (0=not at all to 5=severe). This scale was measured at each assessment visit (Visit 1-4)

[1] = patients on amisulpride, P = 0.8772

In the case of C=C(C)[C@@H]1CCC(C)=C[C@H]1c1c(O)cc(CCCCC)cc1O [CBD, Cannabidiol], the “Change in baseline scores, SANS question 19: Sexual interest and activity: difference” value (all patients, P = 0.0364) is reported as “(−0.4)”, the “Change in baseline scores, SANS sub-scale 4 (anhedonia/asociality): difference” value (“Change … (anhedonia/asociality): difference” for short) (all patients, P = 0.0605) is reported as “(−1.2)” and the “Change in baseline scores, SANS question 24: Inattentiveness during mental status testing: difference” value (all patients, P = 0.0610) is reported as “(−0.3)”. For the same molecule, the “Change in baseline scores, SANS sub-scale 5 (disturbance of attention): difference” value (from here on “Change … (disturbance of attention): difference”) (all patients, P = 0.0660) was “(−0.7)”, the “Change in baseline scores, SANS question 25: Global rating of attention: difference” value (from here on “Change … of attention: difference”) (all patients, P = 0.0773) was “(−0.2)” and the “Change in baseline scores, SANS question 20: Ability to feel closeness and intimacy: difference” value (all patients, P = 0.0918) was “(−1.1)”. The “Change in baseline scores, SANS total score: difference” value (all patients, P = 0.1168) was “(−3.5)”, the “Change in baseline scores, SANS question 18: Recreational interests and activity: difference” value (all patients, P = 0.1535) was “(−0.3)” and the “Change in baseline scores, SANS question 22: Global rating of anhedonia: difference” value (from here on “Change … of anhedonia: difference”) (all patients, P = 0.1787) was “(−0.2)”. For the same molecule, the “Change in baseline scores, SANS question 23: Social inattentiveness: difference” value (from here on “Change … Social inattentiveness: difference”) (all patients, P = 0.2445) was “(−0.2)”, the “Change in baseline scores, SANS question 21: Relationships with friends and peers: difference” value (“Change … with friends and peers: difference” below) (all patients, P = 0.8984) was “(0.0)” and the “Change in baseline scores, SANS score: difference” value (shortened to “Change … SANS score: difference”) (patients on amisulpride, P = 0.0687) was “(16.6)”. The “Change … of attention: difference” value (patients on amisulpride, P = 0.0756) was “(1.0)”, the “Change in baseline scores, SANS question 19: Sexual interest and activity: difference” value (patients on amisulpride, P = 0.1971) was “(−0.8)” and the “Change in baseline scores, SANS question 18: Recreational interests and activity: difference” value (patients on amisulpride, P = 0.3833) was “(1.0)”. The “Change … (disturbance of attention): difference” value (patients on amisulpride, P = 0.4023) was “(1.3)”, the “Change … Social inattentiveness: difference” value (patients on amisulpride, P = 0.4206) was “(0.5)” and the “Change … (anhedonia/asociality): difference” value (patients on amisulpride, P = 0.4357) was “(1.4)”. For the same molecule, the “Change … with friends and peers: difference” value (patients on amisulpride, P = 0.5671) was “(0.5)”, the “Change in baseline scores, SANS question 24: Inattentiveness during mental status testing: difference” value (patients on amisulpride, P = 0.8060) was “(−0.2)” and the “Change in baseline scores, SANS question 15: Impersistence at work or school: difference” value (“Change … at work or school: difference” below) (patients on amisulpride, P = 0.8729) was “(0.0)”. For the same molecule, the “Change in baseline scores, SANS question 20: Ability to feel closeness and intimacy: difference” value [1] was “(0.1)”, the “Change … of anhedonia: difference” value [1] was “(0.1)” and the “Change … of attention: difference” value (patients on aripiprazole, P = 0.0412) was “(−0.4)”. The “Change … (disturbance of attention): difference” value (patients on aripiprazole, P = 0.1133) was “(−1.0)”, the “Change in baseline scores, SANS question 24: Inattentiveness during mental status testing: difference” value (patients on aripiprazole, P = 0.1740) was “(−0.4)” and the “Change … at work or school: difference” value (patients on aripiprazole, P = 0.1966) was “(−0.5)”. For the same molecule, the “Change in baseline scores, SANS question 18: Recreational interests and activity: difference” value (patients on aripiprazole, P = 0.2979) was “(−0.3)”, the “Change … Social inattentiveness: difference” value (patients on aripiprazole, P = 0.3546) was “(−0.2)” and the “Change in baseline scores, SANS question 19: Sexual interest and activity: difference” value (patients on aripiprazole, P = 0.4231) was “(−0.3)”. For the same molecule, the “Change … (anhedonia/asociality): difference” value (patients on aripiprazole, P = 0.7086) was “(−0.5)”, the “Change … SANS score: difference” value (patients on aripiprazole, P = 0.7642) was “(−1.4)” and the “Change … with friends and peers: difference” value (patients on aripiprazole, P = 0.8346) was “(−0.1)”. The “Change in baseline scores, SANS question 20: Ability to feel closeness and intimacy: difference” value (patients on aripiprazole, P = 0.8965) was “(0.0)”, the “Change … of anhedonia: difference” value (patients on aripiprazole, P = 0.9259) was “(0.0)” and the “Change … SANS score: difference” value (patients on olanzapine, P = 0.0050) was “(−14.3)”. For the same molecule, the “Change in baseline scores, SANS question 20: Ability to feel closeness and intimacy: difference” value (patients on olanzapine, P = 0.0069) was “(−0.9)”, the “Change … (anhedonia/asociality): difference” value (patients on olanzapine, P = 0.0071) was “(−3.7)” and the “Change … at work or school: difference” value (patients on olanzapine, P = 0.0242) was “(−0.9)”. For the same molecule, the “Change … of anhedonia: difference” value (patients on olanzapine, P = 0.0475) was “(−0.6)”, the “Change in baseline scores, SANS question 18: Recreational interests and activity: difference” value (patients on olanzapine, P = 0.0689) was “(−0.8)” and the “Change in baseline scores, SANS question 19: Sexual interest and activity: difference” value (patients on olanzapine, P = 0.0794) was “(−0.9)”. For the same molecule, the “Change … of attention: difference” value (patients on olanzapine, P = 0.1064) was “(−0.6)”, the “Change … (disturbance of attention): difference” value (patients on olanzapine, P = 0.3556) was “(−1.0)” and the “Change … with friends and peers: difference” value (patients on olanzapine, P = 0.4829) was “(−0.2)”. The “Change in baseline scores, SANS question 24: Inattentiveness during mental status testing: difference” value (patients on olanzapine, P = 0.5922) was “(−0.2)”, the “Change … Social inattentiveness: difference” value (patients on olanzapine, P = 0.6757) was “(−0.2)” and the “Change in baseline scores, SANS question 24: Inattentiveness during mental status testing: difference” value (patients on other antipsychotics, P = 0.0654) was “(−1.6)”. For the same molecule, the “Change … of attention: difference” value (patients on other antipsychotics, P = 0.1763) was “(0.8)”, the “Change in baseline scores, SANS question 20: Ability to feel closeness and intimacy: difference” value (patients on other antipsychotics, P = 0.2601) was “(−0.4)” and the “Change … at work or school: difference” value (patients on other antipsychotics, P = 0.2746) was “(−10.6)”. The “Change … SANS score: difference” value (patients on other antipsychotics, P = 0.3359) was “(−8.3)”, the “Change … (disturbance of attention): difference” value (patients on other antipsychotics, P = 0.4192) was “(−1.5)” and the “Change … Social inattentiveness: difference” value (patients on other antipsychotics, P = 0.4246) was “(−0.5)”. For the same molecule, the “Change … (anhedonia/asociality): difference” value (patients on other antipsychotics, P = 0.5465) was “(−0.8)”, the “Change … with friends and peers: difference” value (patients on other antipsychotics, P = 0.6373) was “(−0.2)” and the “Change … of anhedonia: difference” value (patients on other antipsychotics, P = 0.6969) was “(−0.2)”. The “Change in baseline scores, SANS question 18: Recreational interests and activity: difference” value (patients on other antipsychotics, P = 0.8182) was “(−0.1)”, the “Change in baseline scores, SANS question 19: Sexual interest and activity: difference” value (patients on other antipsychotics, P = 0.9656) was “(0.0)” and the “Change … (anhedonia/asociality): difference” value (patients on quetiapine, P = 0.0017) was “(−4.8)”. The “Change … with friends and peers: difference” value (patients on quetiapine, P = 0.0044) was “(−0.7)”, the “Change in baseline scores, SANS question 18: Recreational interests and activity: difference” value (patients on quetiapine, P = 0.0233) was “(−1.3)” and the “Change in baseline scores, SANS question 19: Sexual interest and activity: difference” value (patients on quetiapine, P = 0.0501) was “(−1.4)”. For the same molecule, the “Change … Social inattentiveness: difference” value (patients on quetiapine, P = 0.0862) was “(−0.5)”, the “Change … of anhedonia: difference” value (patients on quetiapine, P = 0.1043) was “(−1.1)” and the “Change in baseline scores, SANS question 20: Ability to feel closeness and intimacy: difference” value (patients on quetiapine, P = 0.1330) was “(−0.4)”. The “Change … of attention: difference” value (patients on quetiapine, P = 0.2697) was “(−0.4)”, the “Change … (disturbance of attention): difference” value (patients on quetiapine, P = 0.2701) was “(−1.1)” and the “Change … SANS score: difference” value (patients on quetiapine, P = 0.3150) was “(−5.4)”. The “Change in baseline scores, SANS question 24: Inattentiveness during mental status testing: difference” value (patients on quetiapine, P = 0.4421) was “(−0.6)”, the “Change … at work or school: difference” value (patients on quetiapine, P = 0.6640) was “(5.1)” and the “Change … with friends and peers: difference” value (patients on risperidone, P = 0.0791) was “(0.5)”. For the same molecule, the “Change … (anhedonia/asociality): difference” value (patients on risperidone, P = 0.2800) was “(1.2)”, the “Change … SANS score: difference” value (patients on risperidone, P = 0.2955) was “(3.1)” and the “Change … (disturbance of attention): difference” value (patients on risperidone, P = 0.3302) was “(0.7)”. The “Change … of attention: difference” value (patients on risperidone, P = 0.3389) was “(0.2)”, the “Change in baseline scores, SANS question 24: Inattentiveness during mental status testing: difference” value (patients on risperidone, P = 0.4231) was “(0.3)” and the “Change in baseline scores, SANS question 18: Recreational interests and activity: difference” value (patients on risperidone, P = 0.4560) was “(−0.3)”. For the same molecule, the “Change … Social inattentiveness: difference” value (patients on risperidone, P = 0.5207) was “(0.2)”, the “Change … at work or school: difference” value (patients on risperidone, P = 0.6285) was “(0.1)” and the “Change in baseline scores, SANS question 19: Sexual interest and activity: difference” value (patients on risperidone, P = 0.6889) was “(0.1)”. The “Change in baseline scores, SANS question 20: Ability to feel closeness and intimacy: difference” value (patients on risperidone, P = 0.8648) was “(0.0)” and the “Change … of anhedonia: difference” value (patients on risperidone, P = 0.9940) was “(0.0)”.
